Source: paper PMC3066128 (PLoS Biology, 2011)
Where two headings read alike, the source gives them in different places.

Experiments:
5-HT3R = details: human versus mouse 5-HT3R; cited from earlier work
human α7 nAChR S148A = target: T1, human α7 nAChR S148A (Homo sapiens, UniProt P36544, S170A); test: Two-electrode voltage clamp, α7 nAChR S148A in Xenopus oocytes; assay type: cell-based; details: co-applied with EC50 acetylcholine
T1 construct: expressed in transfected cells; host or cells: Xenopus oocytes injected with cRNA (pMXT)
Description: (§1) To address this question, we performed alanine-scanning mutagenesis of the homologous residues in the human GlyR or nAChR using structure-based sequence alignments with AChBP (see Figure S1). The two-electrode voltage-clamp technique was used to measure ligand potency on wild type and mutant GlyR or nAChR expressed in Xenopus oocytes. […] One of these mutants, F207A, was previously characterized in the work from Grundzinska et al..
(§2) For d-TC, previous mutagenesis studies have been carried out either on the muscle-type nAChR [1] or 5-HT3R [5],[12]. […] Both model systems either complicate the mutational analysis or make it difficult to derive conclusions that can be generalized to other CLRs. Here, we chose the human α7 nAChR to characterize the effect of homologous contact mutations on the potency of d-TC. The α7 nAChR, which is also a target of d-TC [4], is closely related to Ac-AChBP and is an attractive model system to extrapolate the results obtained from our X-ray crystal structures.
(§3) Competitive binding assays with ^3H-epibatidine were carried out as previously published with minor modifications (see Text S1). Electrophysiological assays were carried out using the two-electrode voltage clamp technique. The cDNA encoding human α1 GlyR was subcloned into pGEM-HE for oocyte expression with a PCR strategy and verified by sequencing. […]

human α7 nAChR Y93A = target: T2, human α7 nAChR Y93A (Homo sapiens, UniProt P36544, Y115A); test: Two-electrode voltage clamp, α7 nAChR Y93A in Xenopus oocytes; assay type: cell-based; details: co-applied with EC50 acetylcholine
T2 construct: expressed in transfected cells; host or cells: Xenopus oocytes injected with cRNA (pMXT)
Description: as §1, §2, §3

human α7 nAChR G167A = target: T3, human α7 nAChR G167A (Homo sapiens, UniProt P36544, G189A); test: Two-electrode voltage clamp, α7 nAChR G167A in Xenopus oocytes; assay type: cell-based; details: co-applied with EC50 acetylcholine
T3 construct: expressed in transfected cells; host or cells: Xenopus oocytes injected with cRNA (pMXT)
Description: as §1, §2, §3

human α7 nAChR wt = target: T4, human α7 nAChR wt (Homo sapiens, UniProt P36544); test: Two-electrode voltage clamp, wild type α7 nAChR in Xenopus oocytes; assay type: cell-based; details: co-applied with EC50 acetylcholine
T4 construct: expressed in transfected cells; host or cells: Xenopus oocytes injected with cRNA (pMXT)
Description: as §1, §2, §3

human α7 nAChR = target: T5, human α7 nAChR (Homo sapiens, UniProt P36544); test: biochemical; assay type: binding
T5 construct: expressed in transfected cells
Procedure: Human neuroblastoma cells (SH-SY5Y) stably expressing human α7 nAChR were obtained from Christian Fuhrer (Department of Neurochemistry, Brain Research Institute, University of Zurich). The cells were maintained in DMEM/F12 (Dulbecco's Modified Eagle Medium / Nutrient Mixture F-12) supplemented with 10% fetal calf serum (FCS), 50 IU/mL penicillin, 50 µg/mL streptomycin and 0.1 mg/ml geneticin in 5% CO2 humidified atmosphere at 37°C. Batches of cells from several passages were washed 3x with PBS, harvested and after centrifuging aliquots, the cell-pellets were stored at -80°C until use. Although there appeared to be little batch-to-batch variation, only one passage was used for the triplicate experiments as described below. […] The SPA beads were allowed to settle for 2-4 h and the radioactivity was measured in a Wallac 1450 MicroBeta liquid scintillation counter. All radioligand binding data were evaluated by a nonlinear, least-squares curve fitting procedure using Graphpad Prism (version 5.0a, GraphPad Software, Inc., San Diego, CA). […]
Frozen cell pellets with the human α7 nAChR were thawed, homogenized in ice-cold binding buffer, sonicated before use and added at 0.1 mg/ml. […] After drying the filter-plates, scintillation fluid (MicroScint, Perkin Elmer) was added and the radioactivity was measured as above.

human α7 nAChR W55A = target: T6, human α7 nAChR W55A (Homo sapiens, UniProt P36544, W77A); test: Two-electrode voltage clamp, α7 nAChR W55A in Xenopus oocytes; assay type: cell-based; details: co-applied with EC50 acetylcholine
T6 construct: expressed in transfected cells; host or cells: Xenopus oocytes injected with cRNA (pMXT)
Description: as §1, §2, §3

mouse 5-HT3R = target: mouse 5-HT3R; set-up: method as in PMID 10026168; details: taken from previous study; cited from earlier work
human α7 nAChR S36A = target: T7, human α7 nAChR S36A (Homo sapiens, UniProt P36544, S58A); test: Two-electrode voltage clamp, α7 nAChR S36A in Xenopus oocytes; assay type: cell-based; details: co-applied with EC50 acetylcholine
T7 construct: expressed in transfected cells; host or cells: Xenopus oocytes injected with cRNA (pMXT)
Description: as §1, §2, §3

Ls-AChBP = Ls-AChBP (Lymnaea stagnalis, UniProt P58154); test: biochemical; assay type: binding
Procedure: (§4) Competitive binding assays with ^3H-epibatidine were carried out as previously published with minor modifications (see Text S1). Electrophysiological assays were carried out using the two-electrode voltage clamp technique. The cDNA encoding human α1 GlyR was subcloned into pGEM-HE for oocyte expression with a PCR strategy and verified by sequencing. The cDNA was linearized with NheI and transcribed with the T7 mMessage mMachine kit from Ambion. The cDNA encoding the human α7 nAChR was cloned into pMXT and linearized with BamHI for transcription with the SP6 mMessage mMachine kit from Ambion. All mutants were engineered using a Quikchange method (Stratagene) and verified by sequencing. Recordings were obtained from oocytes 2–5 d after injection with 50 nl of ∼1 ng/nl RNA. […] Student's t test was used for statistical comparison of paired observations.
Human neuroblastoma cells (SH-SY5Y) stably expressing human α7 nAChR were obtained from Christian Fuhrer (Department of Neurochemistry, Brain Research Institute, University of Zurich). […] The SPA beads were allowed to settle for 2-4 h and the radioactivity was measured in a Wallac 1450 MicroBeta liquid scintillation counter.

human α7 nAChR E193A = target: T8, human α7 nAChR E193A (Homo sapiens, UniProt P36544, E215A); test: Two-electrode voltage clamp, α7 nAChR E193A in Xenopus oocytes; assay type: cell-based; details: co-applied with EC50 acetylcholine
T8 construct: expressed in transfected cells; host or cells: Xenopus oocytes injected with cRNA (pMXT)
Description: as §1, §2, §3

muscle-type nAChR = system: muscle-type nAChR; set-up: method as in PMID 8415719; details: heteropentameric muscle-type nAChR; cited from earlier work
human α7 nAChR Q117A = target: T9, human α7 nAChR Q117A (Homo sapiens, UniProt P36544, Q139A); test: Two-electrode voltage clamp, α7 nAChR Q117A in Xenopus oocytes; assay type: cell-based; details: co-applied with EC50 acetylcholine
T9 construct: expressed in transfected cells; host or cells: Xenopus oocytes injected with cRNA (pMXT)
Description: as §1, §2, §3

human α7 nAChR L119A = target: T10, human α7 nAChR L119A (Homo sapiens, UniProt P36544, L141A); test: Two-electrode voltage clamp, α7 nAChR L119A in Xenopus oocytes; assay type: cell-based; details: co-applied with EC50 acetylcholine
T10 construct: expressed in transfected cells; host or cells: Xenopus oocytes injected with cRNA (pMXT)
Description: as §1, §2, §3

human α1 GlyR Q67A = human α1 GlyR Q67A (Homo sapiens, UniProt P23415, Q95A); test: cell-based; details: for mut/wt: IC50 α1 GlyR Q67A over wt
Procedure: as §1, §4

human α1 GlyR I210A = human α1 GlyR I210A (Homo sapiens, UniProt P23415, I238A); test: cell-based
Procedure: as §1, §4

human α1 GlyR F44A = human α1 GlyR F44A (Homo sapiens, UniProt P23415, F72A); test: cell-based; details: for mut/wt: IC50 α1 GlyR F44A over wt
Procedure: as §1, §4

human α1 GlyR F207A = human α1 GlyR F207A (Homo sapiens, UniProt P23415, F235A); test: cell-based
Procedure: as §1, §4

human α1 GlyR S158A = human α1 GlyR S158A (Homo sapiens, UniProt P23415, S186A); test: cell-based; details: for mut/wt: IC50 α1 GlyR S158A over wt
Procedure: as §1, §4

human α1 GlyR Q177A = human α1 GlyR Q177A (Homo sapiens, UniProt P23415, Q205A); test: cell-based; details: for mut/wt: IC50 α1 GlyR Q177A over wt
Procedure: as §1, §4

human α1 GlyR L127A = human α1 GlyR L127A (Homo sapiens, UniProt P23415, L155A); test: cell-based; details: for mut/wt: IC50 α1 GlyR L127A over wt
Procedure: as §1, §4

human α1 GlyR S129A = human α1 GlyR S129A (Homo sapiens, UniProt P23415, S157A); test: cell-based; details: for mut/wt: IC50 α1 GlyR S129A over wt
Procedure: as §1, §4

human α1 GlyR wt = human α1 GlyR wt (Homo sapiens, UniProt P23415); test: cell-based
Procedure: as §1, §4

human α1 GlyR A101F = human α1 GlyR A101F (Homo sapiens, UniProt P23415, A129F); test: cell-based; details: for mut/wt: IC50 α1 GlyR A101F over wt
Procedure: as §1, §4

α1 GlyR R65A [1] = details: IC50 α1 GlyR R65A (ref 23) over wt
human α1 GlyR = details: taken from previous study; cited from earlier work
α1 GlyR F63A [2] = details: IC50 α1 GlyR F63A (ref 23) over wt
α1 GlyR R65A [3] = details: ref Grudzinska et al. 23; cited from earlier work
α1 GlyR F63A [4] = details: ref Grudzinska et al. 23; cited from earlier work

Chain of human α1 GlyR F44A (P23415 29-457 F72A): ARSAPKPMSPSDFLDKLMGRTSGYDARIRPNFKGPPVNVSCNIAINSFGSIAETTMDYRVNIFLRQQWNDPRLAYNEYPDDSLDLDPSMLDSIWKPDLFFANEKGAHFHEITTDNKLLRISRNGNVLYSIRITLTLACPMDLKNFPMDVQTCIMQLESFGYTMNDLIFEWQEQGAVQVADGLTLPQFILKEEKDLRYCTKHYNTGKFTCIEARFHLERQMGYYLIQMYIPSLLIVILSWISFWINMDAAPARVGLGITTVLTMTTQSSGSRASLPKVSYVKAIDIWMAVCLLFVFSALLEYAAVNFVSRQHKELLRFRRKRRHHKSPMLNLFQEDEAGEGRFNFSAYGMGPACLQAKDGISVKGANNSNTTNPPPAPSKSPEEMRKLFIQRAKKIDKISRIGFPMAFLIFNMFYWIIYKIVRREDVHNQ
Chain of human α1 GlyR S129A (P23415 29-457 S157A): as the sequence (P23415 29-457 F72A) above, with A44F, S129A counted along it
Chain of human α1 GlyR Q177A (P23415 29-457 Q205A): as the sequence (P23415 29-457 F72A) above, with A44F, Q177A counted along it
Chain of human α1 GlyR Q67A (P23415 29-457 Q95A): as the sequence (P23415 29-457 F72A) above, with A44F, Q67A counted along it
Chain of human α1 GlyR L127A (P23415 29-457 L155A): as the sequence (P23415 29-457 F72A) above, with A44F, L127A counted along it
Chain of human α1 GlyR A101F (P23415 29-457 A129F): as the sequence (P23415 29-457 F72A) above, with A44F, A101F counted along it
Chain of human α1 GlyR S158A (P23415 29-457 S186A): as the sequence (P23415 29-457 F72A) above, with A44F, S158A counted along it
Chain of human α1 GlyR I210A (P23415 29-457 I238A): as the sequence (P23415 29-457 F72A) above, with A44F, I210A counted along it
Chain of human α1 GlyR F207A (P23415 29-457 F235A): as the sequence (P23415 29-457 F72A) above, with A44F, F207A counted along it
T5 sequence (P36544 23-502): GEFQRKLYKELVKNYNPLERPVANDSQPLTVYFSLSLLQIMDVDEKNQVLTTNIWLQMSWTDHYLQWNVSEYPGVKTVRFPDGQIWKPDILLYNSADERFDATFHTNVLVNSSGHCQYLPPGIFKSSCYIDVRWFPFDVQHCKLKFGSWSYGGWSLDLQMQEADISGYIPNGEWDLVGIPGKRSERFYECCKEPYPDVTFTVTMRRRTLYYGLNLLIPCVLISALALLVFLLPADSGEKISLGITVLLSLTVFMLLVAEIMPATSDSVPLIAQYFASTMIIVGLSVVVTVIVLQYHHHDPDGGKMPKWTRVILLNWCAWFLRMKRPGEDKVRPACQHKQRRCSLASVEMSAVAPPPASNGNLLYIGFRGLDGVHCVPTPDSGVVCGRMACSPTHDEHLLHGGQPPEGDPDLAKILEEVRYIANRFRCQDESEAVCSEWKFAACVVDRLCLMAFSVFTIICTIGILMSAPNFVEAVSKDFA
Chain of Ls-AChBP (P58154 20-229): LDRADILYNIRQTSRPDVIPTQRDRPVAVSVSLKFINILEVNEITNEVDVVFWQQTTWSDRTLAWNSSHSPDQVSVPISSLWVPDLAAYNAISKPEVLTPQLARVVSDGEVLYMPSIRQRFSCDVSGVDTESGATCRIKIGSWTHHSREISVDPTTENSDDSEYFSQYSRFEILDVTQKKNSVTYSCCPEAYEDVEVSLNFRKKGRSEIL
T3 sequence (P36544 23-502 G189A): as the sequence (P36544 23-502) above, with G167A counted along it
T6 sequence (P36544 23-502 W77A): as the sequence (P36544 23-502) above, with W55A counted along it
T8 sequence (P36544 23-502 E215A): as the sequence (P36544 23-502) above, with E193A counted along it
T10 sequence (P36544 23-502 L141A): as the sequence (P36544 23-502) above, with L119A counted along it
T1 sequence (P36544 23-502 S170A): as the sequence (P36544 23-502) above, with S148A counted along it
T2 sequence (P36544 23-502 Y115A): as the sequence (P36544 23-502) above, with Y93A counted along it
T4 sequence (P36544 23-502): as the sequence (P36544 23-502) above
T7 sequence (P36544 23-502 S58A): as the sequence (P36544 23-502) above, with S36A counted along it
T9 sequence (P36544 23-502 Q139A): as the sequence (P36544 23-502) above, with Q117A counted along it
Chain of human α1 GlyR wt (P23415 29-457): as the sequence (P23415 29-457 F72A) above, with A44F counted along it

## COc1cc2c3cc1Oc1cc(ccc1O)C[C@@H]1c4c(cc(OC)c(O)c4Oc4ccc(cc4)C[C@@H]3N(C)CC2)CC[N+]1(C)C [d-tubocurarine]
5-HT3R
  difference in affinity between human and mouse 5-HT3R: more than 1,000 fold
Human α7 nAChR S148A
  IC50: 176 ± 10.8 µM
Human α7 nAChR Y93A
  IC50: 7.81 ± 0.98 µM
Human α7 nAChR G167A
  IC50: significant decrease in the IC50-values
Human α7 nAChR G167A; read-out: IC50
  IC50: 0.043 ± 0.002 µM
Human α7 nAChR wt
  IC50: 1.19 ± 0.17 µM
Human α7 nAChR; competition with 3H-methyllycaconitine, human α7 nAChR, read-out: Ki
  Ki: 2.98 µM
Human α7 nAChR W55A
  IC50: 16.7 ± 0.94 µM
Mouse 5-HT3R
  Ki: 0.138 ± 0.022 µM
Human α7 nAChR S36A
  IC50: 2.25 ± 0.52 µM
Ls-AChBP
  Ki: 0.171 ± 0.0183 µM
Human α7 nAChR E193A
  IC50: 8.1 ± 0.68 µM
muscle-type nAChR
  difference in affinity between the two binding sites: 100 fold
Human α7 nAChR Q117A
  IC50: 2.28 ± 0.14 µM
Human α7 nAChR L119A
  IC50: 9.19 ± 2.16 µM

## O=C1C[C@@H]2OCC=C3CN4CC[C@]56c7ccccc7N1[C@H]5[C@H]2[C@H]3C[C@H]46 [strychnine]
Human α1 GlyR Q67A
  IC50: 0.689 ± 0.176 µM
  mut/wt: 15
Human α1 GlyR Q67A; listed as Strychnine
  mut/wt: 14.7
Human α1 GlyR I210A
  IC50: 0.103 ± 0.019 µM
Human α1 GlyR I210A; IC50 α1 GlyR I210A over wt
  mut/wt: 2.2
Human α1 GlyR F44A
  IC50: 0.13 ± 0.00406 µM
  mut/wt: 3
Human α1 GlyR F44A; listed as Strychnine
  mut/wt: 2.8
Human α1 GlyR F207A
  IC50: 5590 ± 1890 µM
Human α1 GlyR F207A; IC50 α1 GlyR F207A over wt
  mut/wt: 119,444
Human α1 GlyR S158A
  IC50: 13.8 µM
  mut/wt: 300
Human α1 GlyR S158A; listed as Strychnine
  mut/wt: 294
Human α1 GlyR Q177A
  IC50: 0.00336 ± 0.00063 µM
  mut/wt: apparent increase in strychnine-potency
Human α1 GlyR Q177A; listed as Strychnine
  mut/wt: 0.1
Human α1 GlyR Q177A; α1 GlyR Q177A, co-applied with EC50 glycine
  IC50: significant decrease in the IC50-values
Human α1 GlyR L127A
  IC50: 0.376 ± 0.0692 µM
  mut/wt: ~10
Human α1 GlyR L127A; listed as Strychnine
  mut/wt: 8
Human α1 GlyR S129A
  IC50: 0.358 ± 0.144 µM
  mut/wt: ~10
Human α1 GlyR S129A; listed as Strychnine
  mut/wt: 8
Human α1 GlyR wt
  IC50: 0.0468 ± 0.00875 µM
Human α1 GlyR A101F
  IC50: 0.583 ± 0.0476 µM
  mut/wt: ~10
Human α1 GlyR A101F; listed as Strychnine
  mut/wt: 12
Human α7 nAChR
  Ki: 4.85 µM
α1 GlyR R65A [1]
  mut/wt: 3
α1 GlyR R65A [1]; listed as Strychnine
  mut/wt: 3.4
Ls-AChBP
  Ki: 0.224 ± 0.0263 µM
Human α1 GlyR
  Ki: 0.016 ± 0.002 µM
α1 GlyR F63A [2]
  mut/wt: 250
α1 GlyR F63A [2]; listed as Strychnine
  mut/wt: 256
α1 GlyR R65A [3]
  IC50: 0.16 ± 0.05 µM
α1 GlyR F63A [4]
  IC50: 12 µM
